The values below come from PubChem BioAssay (NCI).

“And” between values parts separate entries of the source, which are not always exact repeats. Identical values can stand only once.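 The compound was tested at five concentrations on cells cultured in 96-well plates, with a 48-hour exposure period. At the GI50, growth is halved. TGI is the concentration that stops growth completely.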

Some test systems named below: HOP-92 NSCLC; 786-0 renal; HCT-15 colon; SR leukemia; M14 melanoma; OVCAR-8 ovarian; MDA-N; COLO 205 colon; HT29 colon; RPMI-8226 leukemia; SK-MEL-2 melanoma.
Holding throughout (experiment): NCI tumour cell line growth inhibition, 48 h

On to `COc1ccccc1Nc1nc(NNC(=O)Cc2ccccc2)nc(NNC(=O)c2ccncc2)n1`, for which the TGI with HOP-92 NSCLC, in the assay on 786-0 renal, in the assay with HCT-15 colon, in the assay with SR leukemia, with M14 melanoma and in the assay on OVCAR-8 ovarian was over 10 µM each time. The TGI in the assay with MDA-N, in the assay on COLO 205 colon, in the assay on HT29 colon and in the assay with RPMI-8226 leukemia was over 10 µM each time.

In the case of `CC(=O)c1cc2ccccc2n(O)c1=N`, the TGI in the assay on HOP-92 NSCLC, in the assay on 786-0 renal, in the assay on SK-MEL-2 melanoma, in the assay with HCT-15 colon, with SR leukemia and with M14 melanoma was over 100 µM each time. Moreover, the TGI in the assay on OVCAR-8 ovarian, in the assay on MDA-N, in the assay with COLO 205 colon and in the assay with HT29 colon was over 100 µM each time.

In the case of `CSc1c(C#N)c2n(c3ccccc13)c1ccccc1[n+]2C`, the TGI in the assay on HOP-92 NSCLC was over 100 µM; with 786-0 renal, over 100 µM; in the assay with SK-MEL-2 melanoma, 39.1 µM; in the assay with HCT-15 colon it was over 100 µM; in the assay with SR leukemia, over 100 µM; in the assay with M14 melanoma, over 100 µM. For the same molecule, the TGI worked out at 59.3 µM with OVCAR-8 ovarian; 63.5 µM in the assay with MDA-N; 38.6 µM in the assay on COLO 205 colon; 46.2 µM in the assay with HT29 colon; 85.6 µM in the assay with RPMI-8226 leukemia.

Turning to `Cc1ccc(SC(=O)N2C(=S)NC(=NC3CCCCC3)C23CCCCC3)cc1`, the TGI with HOP-92 NSCLC, in the assay on 786-0 renal, in the assay with SK-MEL-2 melanoma, in the assay with HCT-15 colon, in the assay with SR leukemia and with M14 melanoma was over 100 µM in each case. The TGI in the assay on MDA-N, with COLO 205 colon, with HT29 colon and in the assay on RPMI-8226 leukemia was over 100 µM throughout.

Regarding `COc1ccc(/C=C2\N=C(c3ccccc3)N(C3Nc4cc5c(cc4S3)NC(N3C(=O)/C(=C/c4ccc(OC)cc4)N=C3c3ccccc3)S5)C2=O)cc1` (stereo not given), the TGI was over 100 µM with HOP-92 NSCLC; over 100 µM in the assay with 786-0 renal; 97.5 µM in the assay on SK-MEL-2 melanoma; over 100 µM in the assay with HCT-15 colon; over 100 µM with SR leukemia; over 100 µM in the assay with M14 melanoma. Further, the TGI was over 100 µM in the assay on OVCAR-8 ovarian, over 100 µM in the assay on MDA-N, over 100 µM with HT29 colon and 86.7 µM in the assay on RPMI-8226 leukemia.

As to `O=C(NCCCNCCNC(=O)c1cc(-c2ccccc2)nc2ccccc12)c1cc(-c2ccccc2)nc2ccccc12`, the TGI with HOP-92 NSCLC worked out at 6.37 µM; in the assay with 786-0 renal, 3.24 µM; with HCT-15 colon, 3.23 µM; in the assay on SR leukemia it was 8.73 µM; in the assay on M14 melanoma it was 3.95 µM; in the assay on OVCAR-8 ovarian, 3.16 µM. Moreover, the TGI is 3.36 µM with MDA-N, 3.21 µM in the assay with COLO 205 colon and 2.91 µM in the assay with HT29 colon.

Regarding `c1ccc2c(c1)nc1n2CCSC1`, the TGI in the assay with HOP-92 NSCLC, with 786-0 renal, in the assay on SK-MEL-2 melanoma, with HCT-15 colon, with SR leukemia and in the assay on M14 melanoma was over 100 µM throughout. Further, the TGI in the assay on MDA-N, in the assay on COLO 205 colon, in the assay with HT29 colon and with RPMI-8226 leukemia was over 100 µM in each case.

Take `COc1ccc2c(c1)/c(=C/c1ccc(N(C)C)cc1)c1cc(-c3ccccc3)[n+](C)n12`: the TGI was determined as 0.784 µM in the assay with HOP-92 NSCLC; 1.6 µM in the assay on 786-0 renal; 1.61 µM in the assay with SK-MEL-2 melanoma; 4.02 µM in the assay with HCT-15 colon; 2.84 µM with SR leukemia; 1.36 µM with M14 melanoma. In addition, the TGI with OVCAR-8 ovarian is 0.44 µM; with MDA-N it was 1.48 µM; in the assay with HT29 colon it was 0.566 µM and 0.982 µM. Further, the values for the GI50 in the assay on HT29 colon and in the assay on RPMI-8226 leukemia were 0.0753 µM and 0.0555 µM, respectively.

Regarding `COc1cc(C2SCC(=O)N2c2ccc(Oc3ccc(Cl)cc3)c(Cl)c2)cc(OC)c1OC` (stereo not given), the TGI with 786-0 renal was 33.9 µM; in the assay on SK-MEL-2 melanoma it was 32.2 µM; in the assay with HCT-15 colon, over 100 µM; in the assay on SR leukemia it was over 100 µM; with M14 melanoma, 83.1 µM; with OVCAR-8 ovarian, 30.7 µM. For the same molecule, the TGI in the assay on MDA-N was 45.1 µM; in the assay on COLO 205 colon it was 36.6 µM; in the assay on HT29 colon it was 33.7 µM; in the assay with RPMI-8226 leukemia, over 100 µM.

For `CCc1c(C)c(C#N)c(=S)n(C2OC(CO)C(O)C(O)C2O)c1C` (stereo not given), the TGI in the assay on HOP-92 NSCLC, in the assay with 786-0 renal, with SK-MEL-2 melanoma, in the assay on HCT-15 colon, in the assay on SR leukemia and in the assay on M14 melanoma was over 100 µM throughout. For the same molecule, the TGI in the assay on OVCAR-8 ovarian, in the assay on MDA-N, with COLO 205 colon and with HT29 colon was over 100 µM each time.

Consider `C[N+](C)(C)c1ncnc2c1ncn2C1CCCCO1` (stereo not given), for which the TGI with HOP-92 NSCLC, with 786-0 renal, in the assay on SK-MEL-2 melanoma, with SR leukemia, in the assay on M14 melanoma and with OVCAR-8 ovarian was over 100 µM in each case. Further, the TGI with MDA-N, in the assay with COLO 205 colon, in the assay on HT29 colon and in the assay with RPMI-8226 leukemia was over 100 µM throughout.

As to `O=C(NCc1ccc(Cl)cc1)c1cc2sccc2nc1C(F)(F)F`, the TGI with HOP-92 NSCLC was over 100 µM; in the assay with 786-0 renal, 39.8 µM; in the assay with SK-MEL-2 melanoma it was over 100 µM; in the assay with SR leukemia, over 100 µM; in the assay on M14 melanoma, over 100 µM; with OVCAR-8 ovarian, 72.1 µM. For the same molecule, the TGI in the assay on MDA-N, in the assay with COLO 205 colon, with HT29 colon and in the assay on RPMI-8226 leukemia was over 100 µM each time.

For `CCCCOCn1c(=O)[nH]c(=O)c2cc(Br)ccc21`, the TGI in the assay with HOP-92 NSCLC, with 786-0 renal, in the assay on SK-MEL-2 melanoma, in the assay on HCT-15 colon, in the assay on SR leukemia and in the assay on M14 melanoma was over 100 µM each time. Moreover, the TGI in the assay with OVCAR-8 ovarian is 88.6 µM; in the assay on MDA-N, over 100 µM; with COLO 205 colon it was over 100 µM; with HT29 colon, over 100 µM.

Consider `NNC(=S)N1CCN(C(=S)NN)CC1`, for which the TGI in the assay on HOP-92 NSCLC, in the assay with 786-0 renal, in the assay with SK-MEL-2 melanoma, with SR leukemia, in the assay on M14 melanoma and in the assay on MDA-N was over 100 µM in each case. Moreover, the TGI with COLO 205 colon, in the assay with HT29 colon and with RPMI-8226 leukemia was over 100 µM throughout.

With `CC(C)N(C)C(=O)C12C3C4C1C1C2C3C41C#N` (stereo not given), the TGI in the assay on HOP-92 NSCLC, in the assay on 786-0 renal, with SK-MEL-2 melanoma, in the assay on HCT-15 colon, with SR leukemia and in the assay on M14 melanoma was over 100 µM each time. In addition, the TGI with OVCAR-8 ovarian, with MDA-N, in the assay with COLO 205 colon and in the assay on HT29 colon was over 100 µM throughout.

As to `Cc1ccc(C(=O)/C(C#N)=C/Nc2c(C)n(C)n(-c3ccccc3)c2=O)cc1`, the TGI in the assay with HOP-92 NSCLC, in the assay on 786-0 renal, in the assay on SK-MEL-2 melanoma, in the assay with HCT-15 colon, in the assay on SR leukemia and in the assay with M14 melanoma was over 100 µM throughout. The TGI in the assay on MDA-N, with COLO 205 colon, in the assay with HT29 colon and in the assay with RPMI-8226 leukemia was over 100 µM each time.

Regarding `COc1cc(/C=C2\CCC(C)C3=C2NC(=S)NC3c2cc(OC)c(OC)c(OC)c2)cc(OC)c1OC` (stereo not given), the TGI in the assay on HOP-92 NSCLC, in the assay on 786-0 renal, in the assay on SK-MEL-2 melanoma, in the assay with HCT-15 colon, in the assay on SR leukemia and in the assay on M14 melanoma was over 100 µM in each case. In addition, the TGI with OVCAR-8 ovarian is over 100 µM; with MDA-N, over 100 µM; in the assay on HT29 colon, over 100 µM; in the assay with RPMI-8226 leukemia it was 68.4 µM.

Take `CC(=O)c1cc2c(s1)C(=O)c1ccccc1C2=O`: the TGI with HOP-92 NSCLC was 21.6 µM; in the assay on 786-0 renal, over 71.3 µM; with SK-MEL-2 melanoma, 15.5 µM; in the assay on SR leukemia it was over 100 µM; in the assay with M14 melanoma it was 10.8 µM; in the assay with OVCAR-8 ovarian, 5.98 µM. For the same molecule, the TGI in the assay on MDA-N is 4.74 µM; with COLO 205 colon, 28.9 µM; in the assay with HT29 colon it was 21.4 µM; in the assay with RPMI-8226 leukemia it was 26.9 µM.

`CC(C)(C)OC[C@H](O)CC#N`: the TGI with 786-0 renal, with SK-MEL-2 melanoma, with HCT-15 colon, in the assay with SR leukemia, in the assay on M14 melanoma and with OVCAR-8 ovarian was over 100 µM in each case. The TGI in the assay with MDA-N, in the assay on COLO 205 colon, with HT29 colon and with RPMI-8226 leukemia was over 100 µM in each case.

For the molecule `Cc1cc(=O)oc2cc(O)ccc12`, the TGI in the assay on HOP-92 NSCLC, in the assay on 786-0 renal, in the assay on SK-MEL-2 melanoma, with HCT-15 colon, with SR leukemia and with OVCAR-8 ovarian was over 100 µM each time. The TGI with MDA-N, with COLO 205 colon, in the assay on HT29 colon and in the assay with RPMI-8226 leukemia was over 100 µM throughout.
